One experiment concerns the target T1, CB2 receptor (Rattus norvegicus, UniProt Q9QZN9).
T1 construct: from tissue; host or cells: rat spleen membrane specimen
T1 sequence (Q9QZN9 1-360): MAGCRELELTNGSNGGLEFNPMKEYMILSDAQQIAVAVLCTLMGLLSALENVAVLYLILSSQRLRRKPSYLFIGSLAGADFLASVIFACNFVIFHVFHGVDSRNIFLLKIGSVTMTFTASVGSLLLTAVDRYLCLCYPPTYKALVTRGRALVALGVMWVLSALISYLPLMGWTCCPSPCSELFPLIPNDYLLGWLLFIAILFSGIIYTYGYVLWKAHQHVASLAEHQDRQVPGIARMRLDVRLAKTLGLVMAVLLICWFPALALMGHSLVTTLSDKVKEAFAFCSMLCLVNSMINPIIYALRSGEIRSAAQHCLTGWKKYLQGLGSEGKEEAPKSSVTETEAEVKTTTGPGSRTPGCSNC
The experiment in a line: Cannabinoid CB2 receptor-binding activity ([3H]CP55940 binding experiment), rat spleen membrane specimen. Here is the method:
A test was carried out according to the method of Hillard et al. [The Journal of Pharmacology and Experimental Therapeutics, vol. 289, p. 1427 (1999)]. A rat forebrain membrane specimen and a rat spleen membrane specimen were prepared and used in a binding experiment for a CB1 receptor and a binding experiment for a CB2 receptor, respectively. The membrane specimen (forebrain: final concentration of 0.5 mg of protein/mL, spleen: final concentration of 2 mg of protein/mL) was incubated together with a test compound and [^3H]CP55940 (manufactured by PerkinElmer) ((−)-cis-3-[2-hydroxy-[3,5-^3H]-4-(1,1-dimethylheptyl)phenyl]-trans-4-(3-hydroxypropyl)cyclohexanol)) (final concentration: 0.5 nmol/L) in an assay buffer (50 mmol/L Tris-HCl buffer (pH 7.4), 1 mmol/L EDTA and 3 mmol/L MgCl2) containing 0.1% bovine serum albumin at 25° C. for 1 hour, and the resulting mixture was filtered using a glass filter GF/C (manufactured by Whatman) treated with 1% polyethyleneimine. After the glass filter was washed with the assay buffer containing 0.2% bovine serum albumin, the radioactivity on the glass filter was measured using a liquid scintillation counter (TRI-CARB 2700TR, manufactured by Packard). The binding amount in the presence of 10 μmol/L […] (manufactured by Tocris) ((R)-(+)-[2,3-dihydro-5-methyl-3-(4-morpholinylmethyl)pyrrolo[1,2,3-de]-1,4-benzoxazin-6-yl]-1-naphthalenylmethanone) was considered to be a non-specific binding amount, and a difference between the total binding amount and the non-specific binding amount was considered to be a specific binding amount. The 50% inhibitory concentration (IC50 value) of the test compound against the specific binding was obtained, and the Ki value of the test substance was calculated from the 50% inhibitory concentration and the Kd value of the [^3H]CP55940 binding.

A further experiment concerns the target T2, human CB2 receptor (Homo sapiens, UniProt P34972).
T2 construct: expressed in transfected cells
The experiment in a line: GTPγS binding experiment via human CB2 receptor (membrane fraction of CHO-K1 cells). Format: biochemical. The following applies: for Emax: read-out: Emax value (maximum effect of CP55940 as 100%). Here is the method:
A test was carried out according to the method of Hillard et al. [The Journal of Pharmacology and Experimental Therapeutics, vol. 289, p. 1427 (1999)]. As for a membrane specimen, a membrane fraction was prepared from CHO-K1 cells in which a human CB2 receptor [Nature, vol. 365, pp. 61-65 (1993)] was stably expressed and used. The membrane specimen (final concentration: 40 μg of protein/mL) was incubated together with a test compound and [^35S]GTPγS (manufactured by PerkinElmer) (final concentration: 0.05 nmol/L) in an assay buffer (50 mmol/L Tris-HCl buffer (pH 7.4), 100 mmol/L NaCl, 1 mmol/L EDTA, 3 mmol/L MgCl2, and 0.1% bovine serum albumin) containing 20 μmol/L guanosine 5′-diphosphate (GDP) at 30° C. for 1 hour, and the resulting mixture was filtered using a glass filter GF/B (manufactured by Whatman). After the glass filter was washed with the assay buffer, the radioactivity on the glass filter was measured using a liquid scintillation counter (TRI-CARB 2700TR, manufactured by Packard). The binding amount in the presence of 10 μmol/L GTPγS was considered to be a non-specific binding amount, and a difference between the total binding amount and the non-specific binding amount was considered to be a specific binding amount. The ratio of increase in the specific binding amount in the presence of the test compound to the specific binding amount in the absence of the test compound was considered to be an agonistic activity of the test compound. The concentration of the test compound that produces 50% of the maximum effect (EC50 value) was calculated by performing a nonlinear regression analysis using the concentration-response data. The percentage of the maximum effect of the test compound (Emax value) was calculated by considering the maximum effect of CP55940 (manufactured by Tocris) measured at the same time as 100%.
Background: Binding of GTPγS marks nucleotide exchange on a G protein.

Experiment [1] relates to rats with chronic constriction nerve injury. The experiment can be described thus: Analgesic effect in rats with chronic constriction nerve injury (von Frey filament). Format: in vivo, rat. The following applies: oral, dose of 50 mg/kg or less, one hour after administration, von Frey filaments. The source says: Rats with chronic constriction nerve injury were produced by partially modifying the method of Mosconi and Kruger et al. (Pain, vol. 64, pp. 37-57 (1996))
Male Crl:CD(SD) rats were used for the experiments. Under pentobarbital anesthesia, the sciatic nerve of the left hind limb of the rat was exfoliated, and the exfoliated region was wrapped with a polyethylene tube (trade name: Intramedic, size: PE-60, manufactured by Becton Dickinson and Company) of 2 mm in length. On days 14 to 21 after the surgery, the rats were placed in an acrylic connected cage with a wire mesh floor (900 mm (length)×210 mm (depth)×140 mm (height)) consisting of 4 cages connected in a row and allowed to acclimate to the environment for at least 20 minutes, and then, the pain was evaluated.
The von Frey filament (trade name: touch test sensory evaluator, Model number: model 58011, manufactured by Muromachi Kikai) was used to evaluate pain, and the results were calculated as a pain threshold. That is, by using a von Frey filament of different stimulus intensity, stimulation was given to the plantar surface of the injured side of rats with chronic constriction nerve injury, and the stimulus intensity to cause paw withdrawal response was obtained. Then, the 50% pain threshold (Paw withdrawal threshold) (g) was calculated by the up down method of Dixon [Annual Review of Pharmacology and Toxicology, vol. 20, pp. 441-462 (1980)].
In the evaluation of the test compound, rats with 50% pain threshold of less than 4 g were used, and the test compound was dissolved in a 0.5% aqueous methyl cellulose solution and orally administered at a dose of 5 mL/kg. One hour after the administration, the pain threshold was measured using von Frey filaments.

Where [2] appears, read: rat spleen membrane, [3H]CP55940 0.5 nmol/L, 25° C., 1 hour, read-out: Ki value against the CB2 receptor.

Like-named read-outs stand apart in the source and are kept apart here.

T2 sequence (P34972 whole entry): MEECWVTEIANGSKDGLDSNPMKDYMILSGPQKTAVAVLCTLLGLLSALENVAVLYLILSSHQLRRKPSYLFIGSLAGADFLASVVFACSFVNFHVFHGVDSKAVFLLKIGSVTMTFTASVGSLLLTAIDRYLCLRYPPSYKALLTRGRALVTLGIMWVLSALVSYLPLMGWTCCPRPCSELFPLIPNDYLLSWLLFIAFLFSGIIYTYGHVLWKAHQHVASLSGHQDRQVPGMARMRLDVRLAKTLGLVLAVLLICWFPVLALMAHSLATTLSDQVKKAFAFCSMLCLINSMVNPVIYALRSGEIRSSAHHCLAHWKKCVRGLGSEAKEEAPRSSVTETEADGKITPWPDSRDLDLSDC

The Ki is a dissociation constant, usually derived from enzyme kinetics or from competition with a known ligand. A word on the EC50: it is the concentration that produces a half-maximal response. Read a high EC50 as weaker potency. What is called Emax is the greatest response seen or fitted, relative to the assay's reference. As for `CN(C(=O)c1cncc(-c2cn(CC3CCOCC3)c(C(C)(C)C)n2)n1)C1CC1` [Compound 205, 6-[2-tert-Butyl-1-(tetrahydropyran-4-ylmethyl)-1H-imidazol-4-yl]-N-cyclopropyl-N-methylpyrazine-2-carboxamide], on CB2 receptor, the inhibition constant Ki is < 1000 nM. At human CB2 receptor, the EC50 was < 1000 nM and the Emax is > 30%. The “50% pain threshold (paw withdrawal threshold)” value (“50% pain threshold” below) in experiment [1] was “significantly increased the pain threshold”.
Regarding `CCN(C)C(=O)c1cncc(-c2cn(CC3(F)CCOCC3)c(C(C)(C)C)n2)n1` [Compound 185, 6-[2-tert-Butyl-1-(4-fluorotetrahydropyran-4-ylmethyl)-1H-imidazol-4-yl]-N-ethyl-N-methylpyrazine-2-carboxamide], at CB2 receptor, the Ki is < 1000 nM. In addition, at human CB2 receptor, the EC50 was < 1000 nM and the Emax was > 30%. Also, in experiment [1], the “50% pain threshold” value was “significantly increased the pain threshold”.
Consider `CCN(CC)C(=O)c1cncc(-c2cn(CC3CCOCC3)c(C(C)(C)C)n2)n1` [Compound 143, 6-[2-tert-Butyl-1-(tetrahydropyran-4-ylmethyl)-1H-imidazol-4-yl]-N,N-diethylpyrazine-2-carboxamide], for which, on CB2 receptor (setting [2]), the Ki is < 1000 nM. In addition, at human CB2 receptor, the EC50 was < 1000 nM and the Emax is > 30%. The “50% pain threshold” value in experiment [1] was “significantly increased the pain threshold”.
For the compound `CCN(C)C(=O)c1cccc(-c2cn(CC3CCOCC3)c(C(C)(C)C)n2)c1.Cl` [Compound 83, 3-(2-tert-Butyl-1-(tetrahydropyran-4-ylmethyl)-1H-imidazol-4-yl)-N-ethyl-N-methylbenzamide hydrochloride], the Ki at CB2 receptor is < 1000 nM. Also, on human CB2 receptor, the EC50 is < 1000 nM and the Emax was > 30%. Besides, the “50% pain threshold” value in experiment [1] is on record as “significantly increased the pain threshold”.
With `CCN(CC)C(=O)c1cncc(-c2cn(CC3CCOCC3)c(C(C)(C)C)n2)c1` [Compound 85, 5-(2-tert-Butyl-1-(tetrahydropyran-4-ylmethyl)-1H-imidazol-4-yl)-N,N-diethylnicotinamide], the Ki at CB2 receptor was < 1000 nM. On human CB2 receptor, the EC50 was < 1000 nM and the Emax is > 30%. In addition, in experiment [1], the “50% pain threshold” value is recorded as “significantly increased the pain threshold”.
In the case of `CCN(C)C(=O)c1cncc(-c2cn(CC3CCOCC3)c(C(C)(C)C)n2)n1` [Compound 146, 6-[2-tert-Butyl-1-(tetrahydropyran-4-ylmethyl)-1H-imidazol-4-yl]-N-ethyl-N-methylpyrazine-2-carboxamide], the Ki at CB2 receptor is < 1000 nM. Further, on human CB2 receptor, the EC50 was < 1000 nM and the Emax was > 30%. The “50% pain threshold” value in experiment [1] was “significantly increased the pain threshold”.
On to `CCCN(C)C(=O)c1cncc(-c2cn(CC3CCOCC3)c(C(C)(C)C)n2)n1` [Compound 144, 6-[2-tert-Butyl-1-(tetrahydropyran-4-ylmethyl)-1H-imidazol-4-yl]-N-methyl-N-propylpyrazine-2-carboxamide], for which the Ki at CB2 receptor was < 1000 nM. For the same compound, on human CB2 receptor, the EC50 was < 1000 nM and the Emax is > 30%. In addition, the “50% pain threshold” value in experiment [1] was “significantly increased the pain threshold”.
As to `CCN(CC)C(=O)c1cc(-c2cn(CC3CCOCC3)c(C(C)(C)C)n2)ccc1F.Cl` [Compound 66, 5-(2-tert-Butyl-1-(tetrahydropyran-4-ylmethyl)-1H-imidazol-4-yl)-N,N-diethyl-2-fluorobenzamide hydrochloride], the Ki at CB2 receptor is < 1000 nM. At human CB2 receptor, the EC50 is < 1000 nM and the Emax is > 30%. Moreover, in experiment [1], the “50% pain threshold” value is recorded as “significantly increased the pain threshold”.
Turning to `CCN(CC)C(=O)c1cc(-c2cn(CC3CCOCC3)c(C(C)(C)C)n2)ccc1Cl` [Compound 65, 2-Chloro-5-(2-tert-butyl-1-(tetrahydropyran-4-ylmethyl)-1H-imidazol-4-yl)-N,N-diethylbenzamide], the Ki on CB2 receptor was < 1000 nM. For the same compound, at human CB2 receptor, the EC50 was < 1000 nM and the Emax was > 30%. Moreover, the “50% pain threshold” value in experiment [1] is “significantly increased the pain threshold”.
Take `CC(C)(C)c1nc(-c2cccc([N+](=O)[O-])c2)cn1CC1CCOCC1` [Compound 70, 2-tert-Butyl-4-(3-nitrophenyl)-1-(tetrahydropyran-4-ylmethyl)-1H-imidazole]: the Ki at CB2 receptor is < 1000 nM. Besides, at human CB2 receptor, the EC50 is < 1000 nM and the Emax is > 30%. The “50% pain threshold” value in experiment [1] is “significantly increased the pain threshold”.
Consider `CCN(CC)C(=O)c1cccc(-c2cn(CC3CCOCC3)c(C(C)(C)C)n2)c1.Cl` [Compound 76, 3-(2-tert-Butyl-1-(tetrahydropyran-4-ylmethyl)-1H-imidazol-4-yl)-N,N-diethylbenzamide hydrochloride], for which the Ki at CB2 receptor is < 1000 nM. Further, at human CB2 receptor, the EC50 was < 1000 nM and the Emax was > 30%. For the same compound, the “50% pain threshold” value in experiment [1] was “significantly increased the pain threshold”.
Turning to `CN(C)C(=O)c1cncc(-c2cn(CC3CCOCC3)c(C(C)(C)C)n2)n1` [Compound 153, 6-[2-tert-Butyl-1-(tetrahydropyran-4-ylmethyl)-1H-imidazol-4-yl]-N,N-dimethylpyrazine-2-carboxamide], at CB2 receptor, the Ki was < 1000 nM. Besides, on human CB2 receptor, the EC50 is < 1000 nM and the maximal response (Emax) was > 30%. For the same compound, the “50% pain threshold” value in experiment [1] is on record as “significantly increased the pain threshold”.
As for `CN(C)C(=O)c1cccc(-c2cn(CC3(F)CCOCC3)c(C(C)(C)C)n2)c1` [Compound 187, 3-[2-tert-Butyl-1-(4-fluorotetrahydropyran-4-ylmethyl)-1H-imidazol-4-yl]-N,N-dimethylbenzamide], the Ki at CB2 receptor (setting [2]) is < 1000 nM. Besides, the “50% pain threshold” value in experiment [1] is “significantly increased the pain threshold”.

Source of the values: patent US8273738B2, “Imidazole derivatives” (priority 2006, dated 2012).
